Measurements taken from patent publication US20240000721A1, “COMPOSITIONS FOR REDUCTION OF OXIDATIVE STRESS, IMPROVEMENT TO THE IMMUNE SYSTEM, PROMOTION OF HEALTHY CARTILAGE AND/OR ALLEVIATION OF PAIN ACCOMPANYING INFLAMMATORY DISEASES IN RUMINANTS” (DSM IP Assets B.V., priority 2018, published 2024).

System: Brahman steers (Bos indicus)
Test: Rumen metabolites in rumen fluid of fistulated Brahman steers, quantified by NMR
Type: in vivo
Conditions: for Dimethylsulfone in rumen fluid / Trimethylamine in rumen fluid: rumen fluid 3 h post feeding
Source text: Eight fistulated Brahman steers (Bos indicus) were randomly allocated to two groups (4 animals per group) and received a forage ad libitum diet (Rhode grass hay (Chloris […]), chemical composition: DM, 917 g/kg fresh matter; in g/kg of DM: OM, 806; CP, 169; NDF, 661; ADF, 359; ADL, 46; ash, 116 and GE 17.38 MJ/kg). […] Animals were adapted to the diet over a 21 d period. After that initial period, experimental animals were placed into individual pens in an animal house for the measurement of intakes (10 d) and were treated with cyclodextrin (2 g/100 kg LW) and molasses (60 mL/d). On the last 2 days animals were placed into open-circuit respiration chambers for collection of rumen samples. […] PDMN was provided to the animals mixed with molasses (60 mL/day, molasses were previously diluted in water: 1:4 water:molasses) and mixed with the hay at three different times: 0 h, 3 h and 5 h after the feed was offered. […] On days 20 and 21 of treatment both groups were placed in open-circuit respiration chambers for rumen fluid collection. Rumen fluid samples (approx. 60 mL per animal) were collected using a probe with 2 layers of cheesecloth through the cannula of the animal at 3 h post feeding, during confinement in respiration chambers to determine rumen metabolites.

[1] = 21 days treatment compared with control period

| Structure (SMILES) | Dimethylsulfone in rumen fluid (1.6 g chloroform-CD/100 kg LW for 21 days, control period 21) [μmol/L rumen fluid] | Trimethylamine in rumen fluid (1.6 g chloroform-CD/100 kg LW for 21 days, control period 564) [μmol/L rumen fluid] | Effect on the methyl donor dimethylsulfone and triethylamine in rumen fluid (in words) [1] | Dimethylsulfone in rumen fluid (2.5 g PDMN/animal/day (10% on silicon dioxide) for 21 days, control period 20) [μmol/L rumen fluid] | Trimethylamine in rumen fluid (2.5 g PDMN/animal/day (10% on silicon dioxide) for 21 days, control period 334) [μmol/L rumen fluid] | Effect on dimethylsulfone and trimethylamine in rumen fluid (in words) [1] | Effect on dimethylsulfone and trimethylamine in rumen fluid (in words) (21 days treatment compared with control period, listed as propanediolediol mononitrate) |
| --- | --- | --- | --- | --- | --- | --- | --- |
| ClC(Cl)Cl [Chloroform, chloroform, reference compound] | 80 | 828 | statistically significant increase |  |  |  |  |
| O=[N+]([O-])OCCCO [PDMN, 1,3-propanediol mononitrate] |  |  |  | 113 | 1242 | statistically significant increase | particularly effective |
